Target: T1, CysI (Pseudomonas aeruginosa, UniProt Q9I2Q7)
T1 construct: full orf with N-terminal hexahistidine tag (pSKcysI-N), E. coli BL21 (DE3) suf++ with pCDF-cysG; IMAC and SEC
T1 sequence (Q9I2Q7 1-552): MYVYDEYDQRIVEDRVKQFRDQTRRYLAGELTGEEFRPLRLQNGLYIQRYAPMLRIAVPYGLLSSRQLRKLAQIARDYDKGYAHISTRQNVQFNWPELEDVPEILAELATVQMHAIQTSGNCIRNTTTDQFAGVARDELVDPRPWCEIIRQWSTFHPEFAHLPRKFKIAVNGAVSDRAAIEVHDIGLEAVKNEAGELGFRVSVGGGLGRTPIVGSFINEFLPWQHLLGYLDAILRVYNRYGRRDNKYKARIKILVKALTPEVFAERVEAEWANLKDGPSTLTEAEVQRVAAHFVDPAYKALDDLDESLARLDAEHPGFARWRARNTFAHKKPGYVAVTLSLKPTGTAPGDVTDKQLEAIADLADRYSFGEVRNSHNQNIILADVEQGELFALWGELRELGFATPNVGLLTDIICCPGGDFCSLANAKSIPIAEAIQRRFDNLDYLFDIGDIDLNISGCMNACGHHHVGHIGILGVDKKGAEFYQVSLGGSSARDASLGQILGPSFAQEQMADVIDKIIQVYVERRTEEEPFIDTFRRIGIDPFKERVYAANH
Test: methyl viologen oxidation at […] nm
Format: biochemical
Details: anaerobic; methyl viologen as electron donor

Structure (SMILES): O=S(O)O [hydrogen sulphite]
- methyl viologen oxidation at 605 nm: Potassium nitrite and hydrogen sulphite were used as electron acceptors for NirA and CysI
